Reference: PMC7997411, “Discovery and Optimization of Selective Inhibitors of Meprin α (Part II)” (Pharmaceuticals, 2021)
Several values for one entry are separate records, joined by “and”; a condition that tells them apart may be missing. Equal entries are not always repeated. Where two headings read alike, the source gives them in different places.

Tests used:
Meprin α [1] = details: cited from earlier work; for meprin α/β fold selectivity ratio: meprin α over meprin β ref 8
Meprin β = details: cited from earlier work
MMP2 = target: T1, MMP2 (Homo sapiens, UniProt P08253); details: cited from earlier work
T1 construct: purchased R&D Systems 902-MP
T1 sequence (P08253 110-660): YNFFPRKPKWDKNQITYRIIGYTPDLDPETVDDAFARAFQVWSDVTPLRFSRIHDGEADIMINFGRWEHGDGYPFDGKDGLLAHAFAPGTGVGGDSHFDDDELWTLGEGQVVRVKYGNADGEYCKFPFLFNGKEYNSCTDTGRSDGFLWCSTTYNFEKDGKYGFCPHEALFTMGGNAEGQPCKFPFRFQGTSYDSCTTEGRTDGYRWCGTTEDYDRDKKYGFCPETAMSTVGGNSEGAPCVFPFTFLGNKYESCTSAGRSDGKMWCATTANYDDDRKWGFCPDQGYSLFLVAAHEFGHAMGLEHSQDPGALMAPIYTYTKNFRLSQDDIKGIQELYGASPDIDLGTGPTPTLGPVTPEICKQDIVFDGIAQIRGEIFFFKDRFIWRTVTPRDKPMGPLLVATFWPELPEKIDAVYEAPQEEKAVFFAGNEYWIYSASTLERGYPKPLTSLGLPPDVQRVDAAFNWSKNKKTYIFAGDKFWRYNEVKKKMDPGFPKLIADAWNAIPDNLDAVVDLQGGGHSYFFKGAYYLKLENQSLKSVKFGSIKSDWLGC

MMP9 = target: T2, MMP9 (Homo sapiens, UniProt P14780); details: cited from earlier work
T2 construct: purchased R&D Systems 911-MP

MMP13 = target: T3, MMP13 (Homo sapiens, UniProt P45452); details: cited from earlier work
T3 construct: purchased R&D Systems 511-MM

ADAM10 = target: T4, ADAM10 (Homo sapiens, UniProt O14672); details: cited from earlier work
T4 construct: purchased R&D Systems 936-AD
T4 sequence (O14672 214-748): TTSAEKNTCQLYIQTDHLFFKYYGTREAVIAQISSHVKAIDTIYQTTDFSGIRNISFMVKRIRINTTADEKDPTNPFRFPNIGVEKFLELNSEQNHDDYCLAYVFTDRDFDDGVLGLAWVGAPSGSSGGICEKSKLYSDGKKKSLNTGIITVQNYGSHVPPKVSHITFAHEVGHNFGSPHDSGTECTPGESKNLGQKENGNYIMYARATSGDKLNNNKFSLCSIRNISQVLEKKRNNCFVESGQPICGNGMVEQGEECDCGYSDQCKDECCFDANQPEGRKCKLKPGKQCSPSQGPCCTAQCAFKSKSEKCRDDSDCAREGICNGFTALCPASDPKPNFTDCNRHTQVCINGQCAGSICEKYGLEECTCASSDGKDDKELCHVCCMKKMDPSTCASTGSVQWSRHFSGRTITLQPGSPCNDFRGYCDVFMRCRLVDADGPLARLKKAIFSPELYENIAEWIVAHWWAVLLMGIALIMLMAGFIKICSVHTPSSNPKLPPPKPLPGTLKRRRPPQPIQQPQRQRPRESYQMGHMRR

ADAM17 = target: T5, ADAM17 (Homo sapiens, UniProt P78536); details: cited from earlier work
T5 construct: purchased R&D Systems 930-ADB

meprin α [2] = target: T6, meprin α (Homo sapiens, UniProt Q16819); assay: Meprin α assay in a 384-well plate (fluorogenic substrate Mca-YVADAPK-K(Dnp)); format: biochemical
T6 construct: Strep-tag; made in house; host or cells: BTI-TN-5B1-4 insect cells (baculovirus, amplified in Sf9)
T6 sequence (Q16819 66-746): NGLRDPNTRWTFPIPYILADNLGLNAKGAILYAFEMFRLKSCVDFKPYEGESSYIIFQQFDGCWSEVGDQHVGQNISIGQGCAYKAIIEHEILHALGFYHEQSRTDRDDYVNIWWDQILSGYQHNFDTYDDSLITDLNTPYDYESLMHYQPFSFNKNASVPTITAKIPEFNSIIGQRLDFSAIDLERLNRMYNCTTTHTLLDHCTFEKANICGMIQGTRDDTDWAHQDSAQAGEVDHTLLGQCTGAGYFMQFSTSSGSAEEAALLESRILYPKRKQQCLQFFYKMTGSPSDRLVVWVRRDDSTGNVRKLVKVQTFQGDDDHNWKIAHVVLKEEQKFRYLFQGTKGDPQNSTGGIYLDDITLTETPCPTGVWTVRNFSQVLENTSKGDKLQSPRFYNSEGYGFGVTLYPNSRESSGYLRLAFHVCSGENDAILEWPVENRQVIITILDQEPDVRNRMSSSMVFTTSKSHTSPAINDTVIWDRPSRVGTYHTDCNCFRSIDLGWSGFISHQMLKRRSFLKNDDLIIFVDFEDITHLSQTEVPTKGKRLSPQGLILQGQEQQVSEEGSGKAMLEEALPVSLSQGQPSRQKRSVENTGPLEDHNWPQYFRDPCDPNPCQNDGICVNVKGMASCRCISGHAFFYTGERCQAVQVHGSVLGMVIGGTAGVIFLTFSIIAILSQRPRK
Experimental: (§1) Recombinant human meprin α and meprin β were expressed using the Bac-to-Bac expression system (Gibco Life Technologies, Paisley, UK) as described before. Media and supplements were obtained from Gibco Life Technologies. Recombinant Baculoviruses were amplified in adherently growing Spodoptera frugiperda (Sf)9 insect cells at 27 °C in Grace’s insect medium supplemented with 10% fetal bovine serum, 50 units/mL penicillin, and 50 μg/mL streptomycin. Protein expression was performed in 500 mL suspension cultures of BTI-TN-5B1-4 insect cells growing in Express Five SFM supplemented with 4 mM glutamine, 50 units/mL penicillin, and 50 μg/mL streptomycin in Fernbach-flasks using a Multitron orbital shaker (INFORS AG, Bottmingen, Switzerland). Cells were infected at a density of 2 × 10^6 cells/mL with an amplified viral stock at a MOI of ~10. […] Meprins were activated by trypsin, which was removed afterwards by affinity chromatography using a column containing immobilized chicken ovomucoid, a trypsin inhibitor.
(§2) Both assays followed the same general protocol. […] After 30 min incubation at RT, the reactions were started by addition of 5 µL of 2× solutions of substrates (20 µM, meprin α Mca-YVADAPK-K(Dnp), and for meprin β Mca-EDEDED-K(Dnp)).

human meprin β = target: T7, human meprin β (Homo sapiens, UniProt Q16820); assay: Meprin β assay in a 384-well plate (fluorogenic substrate Mca-EDEDED-K(Dnp)); format: biochemical; details: triplicate, ± SD
T7 construct: His-tag; made in house; host or cells: BTI-TN-5B1-4 insect cells (baculovirus, amplified in Sf9)
T7 sequence (Q16820 62-701): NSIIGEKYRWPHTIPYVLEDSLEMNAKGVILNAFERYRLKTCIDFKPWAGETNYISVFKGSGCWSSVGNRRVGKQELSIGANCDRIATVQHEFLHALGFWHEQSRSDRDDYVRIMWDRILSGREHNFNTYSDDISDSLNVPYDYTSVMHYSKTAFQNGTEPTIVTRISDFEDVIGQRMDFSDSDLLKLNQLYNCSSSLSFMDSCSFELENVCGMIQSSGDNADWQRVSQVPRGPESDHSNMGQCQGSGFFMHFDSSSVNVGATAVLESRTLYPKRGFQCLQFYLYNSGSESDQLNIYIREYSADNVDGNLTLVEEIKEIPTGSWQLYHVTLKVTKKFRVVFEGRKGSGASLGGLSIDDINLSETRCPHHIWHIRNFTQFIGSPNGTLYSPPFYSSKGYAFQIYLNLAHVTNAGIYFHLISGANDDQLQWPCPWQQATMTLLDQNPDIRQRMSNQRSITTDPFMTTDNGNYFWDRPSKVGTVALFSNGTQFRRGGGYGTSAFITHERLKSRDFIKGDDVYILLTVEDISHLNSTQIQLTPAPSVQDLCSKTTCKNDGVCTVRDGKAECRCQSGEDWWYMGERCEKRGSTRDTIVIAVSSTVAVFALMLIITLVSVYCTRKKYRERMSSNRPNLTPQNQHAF
Experimental: as §1, §2

[3] = test system: MMP-2, MMP-3, MMP-8, MMP-9, MMP-10, MMP-14, ADAM10, and ADAM17; assay: Selectivity panel of related metzincins; format: biochemical; details: meprin α vs MMP-2, MMP-3, MMP-8, MMP-9, MMP-10, MMP-14, ADAM10, ADAM17
Experimental: Both assays followed the same general protocol. 2.5 µL of 2× enzyme solution (20 nM) in assay buffer (10 mM HEPES, 0.001% Brij-35, pH 7.5) were added to solid bottom black 384 plates (Greiner, cat# 789075). Next, test compounds and pharmacological controls were added to corresponding wells using a 384-pin tool device (V&P Scientific, San Diego). After 30 min incubation at RT, the reactions were started by addition of 2.5 µL of 2× solutions of substrate (R&D Systems cat#: ES010, Mca-KPLGL-Dpa-AR-NH2, 20 µM). Reactions were incubated at RT for 2 h, after which the fluorescence was measured using a Perkin Elmer Viewlux multimode microplate imager (λexcitation = 324 nm, λemission = 393 nm). All compounds were tested in 10-point, 1:3 serial dilutions dose-response format starting with highest concentration of 100 µM. IC50 values were determined using non-linear regression analysis using the GraphPad Prism 8.0 suite of programs.
All assays followed the same general protocol. […] Reactions were incubated at RT for 1 h, after which the fluorescence was measured using the Synergy H4 multimode microplate reader (Biotek Instruments) (λexcitation = 324 nm, λemission = 390 nm). […] IC50 values were determined using non-linear regression analysis using the GraphPad Prism 8.0 suite of programs.

[4] = single value given, at 10 μM ref 11

T5 sequence (P78536 215-824): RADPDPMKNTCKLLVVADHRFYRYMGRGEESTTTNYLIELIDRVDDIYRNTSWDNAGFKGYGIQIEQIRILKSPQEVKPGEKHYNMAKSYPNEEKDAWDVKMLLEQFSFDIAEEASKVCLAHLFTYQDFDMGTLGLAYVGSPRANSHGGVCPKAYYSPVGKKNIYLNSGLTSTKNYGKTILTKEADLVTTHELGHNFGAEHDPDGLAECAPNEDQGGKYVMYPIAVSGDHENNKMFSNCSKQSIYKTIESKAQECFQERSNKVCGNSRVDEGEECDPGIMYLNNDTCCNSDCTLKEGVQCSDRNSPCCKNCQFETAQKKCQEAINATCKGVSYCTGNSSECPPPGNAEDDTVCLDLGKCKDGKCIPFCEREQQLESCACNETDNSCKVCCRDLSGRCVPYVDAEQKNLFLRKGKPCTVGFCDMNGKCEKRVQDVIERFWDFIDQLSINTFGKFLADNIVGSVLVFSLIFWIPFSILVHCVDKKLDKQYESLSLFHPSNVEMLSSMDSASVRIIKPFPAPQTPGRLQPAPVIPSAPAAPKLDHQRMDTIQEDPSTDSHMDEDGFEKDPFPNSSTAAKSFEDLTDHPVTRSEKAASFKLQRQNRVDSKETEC
T2 sequence (P14780 94-707): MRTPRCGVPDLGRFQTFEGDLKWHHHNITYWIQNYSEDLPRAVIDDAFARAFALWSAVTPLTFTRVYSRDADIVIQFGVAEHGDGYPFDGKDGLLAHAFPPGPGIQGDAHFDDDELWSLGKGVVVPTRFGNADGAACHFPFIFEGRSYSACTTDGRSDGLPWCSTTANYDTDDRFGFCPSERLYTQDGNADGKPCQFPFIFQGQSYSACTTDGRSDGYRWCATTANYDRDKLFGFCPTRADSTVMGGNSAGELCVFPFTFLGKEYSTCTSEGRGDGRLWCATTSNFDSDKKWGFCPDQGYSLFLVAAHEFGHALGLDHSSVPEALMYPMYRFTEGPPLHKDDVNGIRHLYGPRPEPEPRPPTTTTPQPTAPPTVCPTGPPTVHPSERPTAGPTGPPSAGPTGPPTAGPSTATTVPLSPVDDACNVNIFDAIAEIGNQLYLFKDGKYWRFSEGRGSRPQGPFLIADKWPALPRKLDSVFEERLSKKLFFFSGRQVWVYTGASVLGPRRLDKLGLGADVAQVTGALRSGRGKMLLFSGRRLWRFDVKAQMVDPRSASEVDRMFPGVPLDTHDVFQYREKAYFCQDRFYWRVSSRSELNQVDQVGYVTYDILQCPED

Compound | IC50 (Meprin α [1]) | IC50 (Meprin β) | meprin α/β fold selectivity ratio (Meprin α [1]) | MMP2 % activity remaining (MMP2; at 10 μM (top) ref 8) | MMP2 % activity remaining (MMP2; at 200 μM (bottom) ref 8) | MMP9 % activity remaining (MMP9; at 10 μM (top) ref 8) | MMP9 % activity remaining (MMP9; at 200 μM (bottom) ref 8) | MMP13 % activity remaining (MMP13; at 10 μM (top) ref 8) | MMP13 % activity remaining (MMP13; at 200 μM (bottom) ref 8) | ADAM10 % activity remaining (ADAM10; at 10 μM (top) ref 8) | ADAM10 % activity remaining (ADAM10; at 200 μM (bottom) ref 8) | ADAM17 % activity remaining (ADAM17; at 10 μM (top) ref 8) | ADAM17 % activity remaining (ADAM17; at 200 μM (bottom) ref 8) | also measured
O=C(Cc1c(-c2ccccc2)n[nH]c1-c1ccccc1)NO [2e] | 3 ± 1 nM | 199 ± 1 nM |  |  |  |  |  |  |  |  |  |  |  | MMP2 % activity remaining (MMP2; [4]): 104%; MMP9 % activity remaining (MMP9; [4]): 81%; MMP13 % activity remaining (MMP13; [4]): 75%; ADAM10 % activity remaining (ADAM10; [4]): 73%; ADAM17 % activity remaining (ADAM17; [4]): 61%
O=C(CN(Cc1ccc2c(c1)OCO2)Cc1ccc2c(c1)OCO2)NO [10d] | 160 ± 1 nM | 2950 ± 350 nM | 18 fold | 95% | 26% | 91% | 61% | 86% | 55% | 86% | 61% | 86% | 57% | 
O=C(CN(Cc1ccc2c(c1)OCCO2)Cc1ccc2c(c1)OCCO2)NO [10e] | 400 ± 30 nM | 7590 ± 10 nM | 19 fold | 94% | 65% | 91% | 21% | 98% | 47% | 80% | 56% | 80% | 41% | 
COc1ccc(-n2c(CSc3ncccn3)nnc2SCC(=O)NO)cc1 [SR19855, N-hydroxy-2-((4-(4-methoxyphenyl)-5-((pyrimidin-2-ylthio)methyl)-4H-1,2,4-triazol-3-yl)thio)acetamide] |  |  |  |  |  |  |  |  |  |  |  |  |  | meprin α/β selectivity (in words) (meprin α [2]; Figure 1): moderate meprin α/β selectivity; meprin α/β fold selectivity (ratio of IC50 values) (meprin α [2]; meprin α over meprin β): ~ 13 fold and 13 fold; IC50 (meprin α [2]; triplicate, ± SD): 1300 ± 100 nM; Meprin α IC50 (meprin α [2]; triplicate, ± SD): low-micromolar; IC50 (human meprin β): 17000 ± 3000 nM; selectivity over a larger panel of metzincins [3]: at least 10 fold
